Starred links: 1 amine or outer side, 2 acyl side, 3 side chain; linkers in the order of their positions; H or OH if unused. Non-standard residues stand in square brackets, D forms with d. Residues, ends and D or L forms follow the SMILES beside them. Groups on a side chain read outwards from the residue. *: point of attachment. C20 diacid = O=C(O)CCCCCCCCCCCCCCCCCCC(=O)*; C18 diacid = O=C(O)CCCCCCCCCCCCCCCCC(=O)*; γGlu = O=C(O)[C@H](CCC(=O)[*:2])N[*:1]; αMeF = C[C@](N)(Cc1ccccc1)C(=O)O; AEEA = NCCOCCOCC(=O)O; Aib = CC(C)(N)C(=O)O
Experiments:
[1] = biological target: human GLP-1 receptor (hGLP-1R) (Homo sapiens, UniProt P43220); test: cAMP production (HTRF) in CHO cells expressing hGLP-1R; assay type: cell-based; parameters: expressed in transfected cells; conditions: for EC50: Table 6, peptides modified at position 17, cAMP in CHO hGLP-1R cells, geometric mean, read-out: hGLP-1R EC50; for % Relative Potency Ratio: Table 6, % GLP-1R activity relative to GLP-1 / % GlucR activity relative to glucagon
Summary of the method: (§1)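 Read-out: HTRF cAMP (anti-cAMP cryptate donor, cAMP-d2 acceptor in conjugate/lysis buffer), converted to % Delta F and fitted by 4-parameter logistic for EC50. Cell densities were 1×10^5 cells/mL (hGLP-1R) or 2×10^5 cells/mL (hGCGR). Stimulation lasted 30 min at room temperature.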

[2] = biological target: human glucagon receptor (hGCGR) (Homo sapiens, UniProt P47871); test: cAMP production (HTRF) in CHO cells expressing hGCGR; assay type: cell-based; parameters: expressed in transfected cells; conditions: Table 6, peptides modified at position 17; cAMP in CHO hGCGR cells; geometric mean; read-out: hGluc-R EC50
Summary of the method: as §1

human glucagon receptor (hGCGR), sequence (P47871 26-477): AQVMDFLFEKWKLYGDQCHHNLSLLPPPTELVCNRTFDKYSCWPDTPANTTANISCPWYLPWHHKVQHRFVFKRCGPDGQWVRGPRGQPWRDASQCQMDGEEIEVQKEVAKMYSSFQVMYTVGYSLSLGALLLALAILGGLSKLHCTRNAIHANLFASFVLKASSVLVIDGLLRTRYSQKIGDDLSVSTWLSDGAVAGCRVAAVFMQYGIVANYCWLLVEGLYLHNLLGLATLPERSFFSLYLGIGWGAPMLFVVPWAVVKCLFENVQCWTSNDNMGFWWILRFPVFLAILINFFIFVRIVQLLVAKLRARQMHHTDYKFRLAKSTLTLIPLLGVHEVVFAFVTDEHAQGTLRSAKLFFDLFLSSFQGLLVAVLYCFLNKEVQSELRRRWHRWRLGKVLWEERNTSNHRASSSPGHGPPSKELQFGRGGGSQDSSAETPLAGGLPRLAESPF
human GLP-1 receptor (hGLP-1R), sequence (P43220 24-463): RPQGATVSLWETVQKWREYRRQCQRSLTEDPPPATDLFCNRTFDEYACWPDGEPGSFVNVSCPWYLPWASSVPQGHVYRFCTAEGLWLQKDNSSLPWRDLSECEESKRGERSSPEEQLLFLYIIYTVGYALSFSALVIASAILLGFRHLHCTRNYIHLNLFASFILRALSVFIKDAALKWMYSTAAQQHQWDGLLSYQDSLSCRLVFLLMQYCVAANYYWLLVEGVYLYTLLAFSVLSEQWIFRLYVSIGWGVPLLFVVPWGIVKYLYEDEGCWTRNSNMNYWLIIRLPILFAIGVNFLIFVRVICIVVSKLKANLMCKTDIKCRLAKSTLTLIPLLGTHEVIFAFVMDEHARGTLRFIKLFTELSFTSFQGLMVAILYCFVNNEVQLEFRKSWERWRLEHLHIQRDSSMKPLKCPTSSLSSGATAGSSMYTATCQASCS

Structure (SMILES) | EC50 [1] | % Relative Potency Ratio [1] | EC50 [2]
CC[C@H](C)[C@H](NC(=O)C(C)(C)NC(=O)[C@H](CCC(N)=O)NC(=O)[C@@H](NC(=O)[C@](C)(Cc1ccccc1)NC(=O)[C@H](CC(=O)O)NC(=O)[C@H](CCC(N)=O)NC(=O)[C@H](C)NC(=O)[C@H](C)NC(=O)[C@H](CCCCNC(=O)COCCOCCNC(=O)COCCOCCNC(=O)CC[C@H](NC(=O)CC[C@H](NC(=O)CCCCCCCCCCCCCCCCCCC(=O)O)C(=O)O)C(=O)O)NC(=O)[C@H](CO)NC(=O)[C@H](CC(=O)O)NC(=O)[C@H](CC(C)C)NC(=O)[C@](C)(Cc1ccccc1)NC(=O)[C@H](CCCCN)NC(=O)[C@H](CO)NC(=O)[C@@H](NC(=O)[C@H](CC(=O)O)NC(=O)[C@H](CO)NC(=O)[C@@H](NC(=O)[C@](C)(Cc1ccccc1)NC(=O)[C@H](CO)NC(=O)CNC(=O)[C@H](Cc1c[nH]cn1)NC(=O)C(C)(C)NC(=O)[C@@H](N)Cc1c[nH]cn1)[C@@H](C)O)C(C)C)C(C)C)C(=O)N[C@@H](C)C(=O)N[C@@H](CC(N)=O)C(=O)N[C@H](C(N)=O)[C@@H](C)O [Peptide 25] (H-H[Aib]HGS[αMeF]TSDVSK[αMeF]LDSK([AEEA-AEEA-γGlu-γGlu-C20 diacid])AAQD[αMeF]VQ[Aib]IANT-NH2) | 0.726 nM | 3.6 | 1.31 nM
CC(C)C[C@H](NC(=O)[C@H](Cc1c[nH]c2ccccc12)NC(=O)[C@H](CCCNC(=N)N)NC(=O)[C@@H](NC(=O)[C@H](Cc1ccccc1)NC(=O)[C@H](CC(=O)O)NC(=O)[C@H](CCC(N)=O)NC(=O)[C@H](C)NC(=O)[C@H](CCCNC(=N)N)NC(=O)[C@H](CCCCNC(=O)COCCOCCNC(=O)COCCOCCNC(=O)CC[C@H](NC(=O)CCCCCCCCCCCCCCCCC(=O)O)C(=O)O)NC(=O)[C@H](CO)NC(=O)[C@H](CC(=O)O)NC(=O)[C@H](CC(C)C)NC(=O)[C@](C)(Cc1ccccc1)NC(=O)[C@H](CCCCN)NC(=O)[C@H](CO)NC(=O)[C@@H](NC(=O)[C@H](CC(=O)O)NC(=O)[C@H](CO)NC(=O)[C@@H](NC(=O)[C@H](Cc1ccccc1)NC(=O)[C@@H](NC(=O)CNC(=O)[C@H](CCC(N)=O)NC(=O)C(C)(C)NC(=O)[C@@H](N)Cc1c[nH]cn1)[C@@H](C)O)[C@@H](C)O)C(C)C)C(C)C)C(=O)N[C@@H](CC(C)C)C(=O)NC(C)(C)C(=O)N[C@H](C(=O)O)[C@@H](C)O [Peptide 28] (H-H[Aib]QGTFTSDVSK[αMeF]LDSK([AEEA-AEEA-γGlu-C18 diacid])RAQDFVRWLL[Aib]T-OH) | 0.129 nM | 4.0 | 0.26 nM
CC(C)C[C@H](NC(=O)[C@H](Cc1c[nH]c2ccccc12)NC(=O)[C@H](CCC(N)=O)NC(=O)[C@@H](NC(=O)[C@H](Cc1ccccc1)NC(=O)[C@H](CC(=O)O)NC(=O)C(C)(C)NC(=O)[C@H](C)NC(=O)[C@H](CCCNC(=N)N)NC(=O)[C@H](CCCCNC(=O)COCCOCCNC(=O)COCCOCCNC(=O)CC[C@H](NC(=O)CCCCCCCCCCCCCCCCC(=O)O)C(=O)O)NC(=O)[C@H](CO)NC(=O)[C@H](CC(=O)O)NC(=O)[C@H](CC(C)C)NC(=O)[C@](C)(Cc1ccccc1)NC(=O)[C@H](CCCCN)NC(=O)[C@H](CO)NC(=O)[C@@H](NC(=O)[C@H](CC(=O)O)NC(=O)[C@H](CO)NC(=O)[C@@H](NC(=O)[C@H](Cc1ccccc1)NC(=O)[C@@H](NC(=O)CNC(=O)[C@H](CCC(N)=O)NC(=O)C(C)(C)NC(=O)[C@@H](N)Cc1c[nH]cn1)[C@@H](C)O)[C@@H](C)O)C(C)C)C(C)C)C(=O)N[C@@H](CC(C)C)C(=O)NC(C)(C)C(=O)N[C@H](C(=O)O)[C@@H](C)O [Peptide 29] (H-H[Aib]QGTFTSDVSK[αMeF]LDSK([AEEA-AEEA-γGlu-C18 diacid])RA[Aib]DFVQWLL[Aib]T-OH; N-terminus assumed) | 0.107 nM | 11.7 | 0.629 nM
CC(C)C[C@H](NC(=O)[C@H](Cc1c[nH]c2ccccc12)NC(=O)[C@H](CCCNC(=N)N)NC(=O)[C@@H](NC(=O)[C@H](Cc1ccccc1)NC(=O)[C@H](CC(=O)O)NC(=O)[C@H](CCC(N)=O)NC(=O)[C@H](C)NC(=O)[C@H](CCCNC(=N)N)NC(=O)[C@H](CCCCNC(=O)COCCOCCNC(=O)COCCOCCNC(=O)CC[C@H](NC(=O)CCCCCCCCCCCCCCCCC(=O)O)C(=O)O)NC(=O)[C@H](CO)NC(=O)[C@H](CC(=O)O)NC(=O)[C@H](CC(C)C)NC(=O)[C@](C)(Cc1ccccc1)NC(=O)[C@H](CCCCN)NC(=O)[C@H](CO)NC(=O)[C@@H](NC(=O)[C@H](CC(=O)O)NC(=O)[C@H](CO)NC(=O)[C@@H](NC(=O)[C@H](Cc1ccccc1)NC(=O)[C@@H](NC(=O)CNC(=O)[C@H](CCC(N)=O)NC(=O)C(C)(C)NC(=O)[C@@H](N)Cc1c[nH]cn1)[C@@H](C)O)[C@@H](C)O)C(C)C)C(C)C)C(=O)N[C@@H](CC(C)C)C(=O)NC(C)(C)C(=O)N[C@H](C(=O)NCC(=O)O)[C@@H](C)O [Peptide 30] (H-H[Aib]QGTFTSDVSK[αMeF]LDSK([AEEA-AEEA-γGlu-C18 diacid])RAQDFVRWLL[Aib]TG-OH; N-terminus assumed) | 0.0527 nM | 8.8 | 0.235 nM

Now from value to compound:

EC50 [1] | % Relative Potency Ratio [1] | EC50 [2] | Structure (SMILES)
0.266 nM | 2.4 | 0.321 nM | CC[C@H](C)[C@H](NC(=O)[C@H](CO)NC(=O)[C@H](CCC(=O)O)NC(=O)[C@@H](NC(=O)[C@](C)(Cc1ccccc1)NC(=O)[C@H](CC(=O)O)NC(=O)[C@H](CCC(N)=O)NC(=O)[C@H](C)NC(=O)[C@H](C)NC(=O)[C@H](CCCCNC(=O)COCCOCCNC(=O)COCCOCCNC(=O)CC[C@H](NC(=O)CCCCCCCCCCCCCCCCC(=O)O)C(=O)O)NC(=O)[C@H](CO)NC(=O)[C@H](CC(=O)O)NC(=O)[C@H](CC(C)C)NC(=O)[C@](C)(Cc1ccccc1)NC(=O)[C@H](CCCCN)NC(=O)[C@H](CO)NC(=O)[C@@H](NC(=O)[C@H](CC(=O)O)NC(=O)[C@H](CO)NC(=O)[C@@H](NC(=O)[C@](C)(Cc1ccccc1)NC(=O)[C@H](CO)NC(=O)CNC(=O)[C@H](Cc1c[nH]cn1)NC(=O)C(C)(C)NC(=O)[C@@H](N)Cc1c[nH]cn1)[C@@H](C)O)C(C)C)C(C)C)C(=O)N[C@@H](C)C(=O)N[C@@H](CC(N)=O)C(=O)N[C@H](C(N)=O)[C@@H](C)O [Peptide 23] (H-H[Aib]HGS[αMeF]TSDVSK[αMeF]LDSK([AEEA-AEEA-γGlu-C18 diacid])AAQD[αMeF]VESIANT-NH2; N-terminus assumed)
0.0828 nM | 2.4 | 0.101 nM | CC[C@H](C)[C@H](NC(=O)C(C)(C)NC(=O)[C@H](CCC(N)=O)NC(=O)[C@@H](NC(=O)[C@](C)(Cc1ccccc1)NC(=O)[C@H](CC(=O)O)NC(=O)[C@H](CCC(N)=O)NC(=O)[C@H](C)NC(=O)[C@H](C)NC(=O)[C@H](CCCCNC(=O)COCCOCCNC(=O)COCCOCCNC(=O)CC[C@H](NC(=O)CCCCCCCCCCCCCCCCC(=O)O)C(=O)O)NC(=O)[C@H](CO)NC(=O)[C@H](CC(=O)O)NC(=O)[C@H](CC(C)C)NC(=O)[C@](C)(Cc1ccccc1)NC(=O)[C@H](CCCCN)NC(=O)[C@H](CO)NC(=O)[C@@H](NC(=O)[C@H](CC(=O)O)NC(=O)[C@H](CO)NC(=O)[C@@H](NC(=O)[C@](C)(Cc1ccccc1)NC(=O)[C@H](CO)NC(=O)CNC(=O)[C@H](Cc1c[nH]cn1)NC(=O)C(C)(C)NC(=O)[C@@H](N)Cc1c[nH]cn1)[C@@H](C)O)C(C)C)C(C)C)C(=O)N[C@@H](C)C(=O)N[C@@H](CC(N)=O)C(=O)N[C@H](C(N)=O)[C@@H](C)O [Peptide 24] (H-H[Aib]HGS[αMeF]TSDVSK[αMeF]LDSK([AEEA-AEEA-γGlu-C18 diacid])AAQD[αMeF]VQ[Aib]IANT-NH2; N-terminus assumed)
0.0806 nM | 218.5 | 8.9 nM | CC[C@H](C)[C@H](NC(=O)[C@H](Cc1c[nH]c2ccccc12)NC(=O)[C@H](CCC(N)=O)NC(=O)[C@@H](NC(=O)[C@](C)(Cc1ccccc1)NC(=O)[C@H](CC(=O)O)NC(=O)[C@H](CCC(N)=O)NC(=O)[C@H](C)NC(=O)[C@H](C)NC(=O)[C@H](CCCCNC(=O)COCCOCCNC(=O)COCCOCCNC(=O)CC[C@H](NC(=O)CCCCCCCCCCCCCCCCC(=O)O)C(=O)O)NC(=O)[C@H](CO)NC(=O)[C@H](CC(=O)O)NC(=O)[C@H](CC(C)C)NC(=O)[C@](C)(Cc1ccccc1)NC(=O)[C@H](CCCCN)NC(=O)[C@H](CO)NC(=O)[C@@H](NC(=O)[C@H](CC(=O)O)NC(=O)[C@H](CO)NC(=O)[C@@H](NC(=O)[C@](C)(Cc1ccccc1)NC(=O)[C@H](CO)NC(=O)CNC(=O)[C@H](CCC(N)=O)NC(=O)C(C)(C)NC(=O)[C@@H](N)Cc1c[nH]cn1)[C@@H](C)O)C(C)C)C(C)C)C(=O)N[C@@H](C)C(=O)N[C@@H](CC(N)=O)C(N)=O [Peptide 26] (H-H[Aib]QGS[αMeF]TSDVSK[αMeF]LDSK([AEEA-AEEA-γGlu-C18 diacid])AAQD[αMeF]VQWIAN-NH2)
0.0182 nM | 156.4 | 1.44 nM | CC[C@H](C)[C@H](NC(=O)[C@H](Cc1c[nH]c2ccccc12)NC(=O)[C@H](CCC(=O)O)NC(=O)[C@@H](NC(=O)[C@](C)(Cc1ccccc1)NC(=O)[C@H](CC(=O)O)NC(=O)[C@H](CCC(N)=O)NC(=O)[C@H](C)NC(=O)[C@H](C)NC(=O)[C@H](CCCCNC(=O)COCCOCCNC(=O)COCCOCCNC(=O)CC[C@H](NC(=O)CCCCCCCCCCCCCCCCC(=O)O)C(=O)O)NC(=O)[C@H](CO)NC(=O)[C@H](CC(=O)O)NC(=O)[C@H](CC(C)C)NC(=O)[C@](C)(Cc1ccccc1)NC(=O)[C@H](CCCCN)NC(=O)[C@H](CO)NC(=O)[C@@H](NC(=O)[C@H](CC(=O)O)NC(=O)[C@H](CO)NC(=O)[C@@H](NC(=O)[C@](C)(Cc1ccccc1)NC(=O)[C@H](CO)NC(=O)CNC(=O)[C@H](CCC(N)=O)NC(=O)C(C)(C)NC(=O)[C@@H](N)Cc1c[nH]cn1)[C@@H](C)O)C(C)C)C(C)C)C(=O)N[C@@H](C)C(=O)N[C@@H](CC(N)=O)C(N)=O [Peptide 27] (H-H[Aib]QGS[αMeF]TSDVSK[αMeF]LDSK([AEEA-AEEA-γGlu-C18 diacid])AAQD[αMeF]VEWIAN-NH2; N-terminus assumed)

— patent publication US20250353891A1 (MEDIMMUNE LIMITED, priority 2022, published 2025)
